In PubChem BioAssay AID1508612:

test: passive permeability, PAMPA, ADME assay (AID 1508612); conditions: pH 7.4, 30.0 min, 50.0 µM

Papp	Structure (SMILES)
192 ×10⁻⁶ cm/s	CC(C)CN(C[C@@H](O)[C@H](Cc1ccccc1)NC(=O)O[C@@H]1CO[C@H]2OCC[C@H]21)S(=O)(=O)c1ccc(N)cc1
> 1000 ×10⁻⁶ cm/s	CCN1CCC(N(Cc2ccc3c(c2)OCO3)C(=O)Nc2cc(Cl)ccc2C(=O)OC)CC1
964 ×10⁻⁶ cm/s	Cc1cc(CNC(=O)c2ccc3c(c2)n(CC2CC2)c(=O)n3C2CCCCC2)on1
551 ×10⁻⁶ cm/s	CN[C@@H](C)C(=O)N[C@@H]1C(=O)N(Cc2c(C)ccc3ccccc23)c2ccc(C#N)cc2N(C(C)=O)[C@H]1C
786 ×10⁻⁶ cm/s	FC(F)(F)c1ccccc1-c1nc(NCc2ccc(-c3cccnc3)cc2)c2ccccc2n1
224 ×10⁻⁶ cm/s	CC(=O)Nc1ccc(NC(=O)C(NS(=O)(=O)c2ccc(Br)s2)c2ccccc2)cc1 (configuration not stated)
> 1000 ×10⁻⁶ cm/s	CCn1ncc(NC(=O)Cn2ncc3cc(-c4cccc(OC)c4)ccc32)n1
989 ×10⁻⁶ cm/s	COc1ccc(NC(=O)c2[nH]c(C)c(C(C)=O)c2C)cc1S(=O)(=O)N1CCCCCC1
22.6 ×10⁻⁶ cm/s	COc1ccc2c(ccn2CCC(=O)Nc2ccc3c(c2)C(=O)N2CCC[C@H]2C(=O)N3)c1
93.9 ×10⁻⁶ cm/s	Cn1nnnc1Sc1ncnc2scc(-c3cccc(S(C)(=O)=O)c3)c12
> 1000 ×10⁻⁶ cm/s	CC[C@@H](C)Nc1cc(C(=O)NC2CC3CCC(C2)N3c2ccc(C(=O)C3CC3)cn2)c(C)cc1C(N)=O (some centres not stated)
136 ×10⁻⁶ cm/s	Cc1cn2nc(-c3nc(C4CCCN(C(=O)c5ccccc5)C4)no3)cc2c(=O)[nH]1 (configuration not stated)
460 ×10⁻⁶ cm/s	O=C1CCc2cc(S(=O)(=O)Nc3ccc(F)c(Cl)c3)ccc2N1
452 ×10⁻⁶ cm/s	O=c1cc(-c2ccccc2)oc2cc(O)cc(O)c12
> 1000 ×10⁻⁶ cm/s	CCOc1cc2c(cc1OCC)CN(C(=O)c1cc3sccc3n1Cc1ccccc1)CC2
52 ×10⁻⁶ cm/s	CNc1nc2c(s1)C(c1ccccc1F)CC(=O)N2 (configuration not stated)
951 ×10⁻⁶ cm/s	CCOC(=O)CCNc1cc(N2CCc3ccccc3CC2)nc(-c2cccnc2)n1
> 1000 ×10⁻⁶ cm/s	OC(CCN1CCCCC1)c1ccc(-c2ccccc2)cc1 (configuration not stated)
> 1000 ×10⁻⁶ cm/s	CN1CCN(c2ccc(Nc3nc(-c4ccncc4)nc4ccccc34)cc2F)CC1
> 1000 ×10⁻⁶ cm/s	CCOC(=O)CCNc1cc(N2CCc3ccccc3CC2)nc(-c2ccccn2)n1
> 1000 ×10⁻⁶ cm/s	COc1ccccc1N1CCN(c2ccc3cc(S(=O)(=O)N4CCCCC4)ccc3n2)CC1
12 ×10⁻⁶ cm/s	COCCN1CCNc2nc(COc3ccc(C(C)C)cc3)n(Cc3ccccc3)c2C1=O
924 ×10⁻⁶ cm/s	NC(=O)C1CCN(c2ncc(-c3cccc(N4CCCCC4)c3)s2)CC1
10.1 ×10⁻⁶ cm/s	CC1=C(C(=O)Nc2ccc(Cl)cc2)C(c2ccccc2C)n2ncc(C(=O)Nc3ccc(C)cc3)c2N1 (configuration not stated)
> 1000 ×10⁻⁶ cm/s	COc1cccc(-n2nc(C(=O)O)cc2-c2ccc(C3CCCCC3)c(Cl)c2)c1

Papp	Structure (SMILES)
108 ×10⁻⁶ cm/s	COCCNC(=O)c1ccc(Cn2c(=S)[nH]c3cc4c(cc3c2=O)OCO4)cc1
> 1000 ×10⁻⁶ cm/s	CC(=O)NCc1ccc(-c2csc(Nc3cccc(C)c3)n2)o1
71.2 ×10⁻⁶ cm/s	Cc1ccc(S(=O)(=O)Nc2cncc(C(=O)Nc3nc(-c4ccccc4)cs3)c2)cc1
975 ×10⁻⁶ cm/s	CCS(=O)(=O)c1nc(-c2ccc(Cl)cc2)cc(C(F)(F)F)n1
28.6 ×10⁻⁶ cm/s	O=[N+]([O-])c1cccc(CNc2ccc(S(=O)(=O)Nc3nccs3)cc2)c1O
440 ×10⁻⁶ cm/s	COc1c(Cl)cc2c([nH]c3cnccc32)c1NC(=O)c1cccnc1C
116 ×10⁻⁶ cm/s	Fc1cc(-c2nc(Nc3ccc(F)c(F)c3)c3ccccc3n2)ccn1
887 ×10⁻⁶ cm/s	CCc1cccc(NC(=O)C(Cc2ccccc2)NS(=O)(=O)c2cccs2)c1 (configuration not stated)
> 1000 ×10⁻⁶ cm/s	CN(C)c1cccc(-c2cnc(Nc3cccnc3)c3c2CCO3)c1
314 ×10⁻⁶ cm/s	Cc1cc(-c2nnc3n2CCCCC3)c(C)n1-c1ccc(F)cc1
> 1000 ×10⁻⁶ cm/s	CCOc1ccc(CCNC(=O)c2ccnn2Cc2cccc(C)c2)cc1OCC
> 1000 ×10⁻⁶ cm/s	Fc1ccc(-c2nc(-c3ccncc3)nc3ccccc23)cc1F
179 ×10⁻⁶ cm/s	CCCN(CCC)CCc1cccc2c1CC(=O)N2
156 ×10⁻⁶ cm/s	CC(=O)c1ccc(N2CCN(c3ccc(NC(=O)c4ccc(F)cc4)cc3C(=O)O)CC2)cc1
136 ×10⁻⁶ cm/s	NC(=O)C1CCN(c2nc(-c3ccccc3N)cs2)CC1
2.33 ×10⁻⁶ cm/s	CO[C@@H]1/C=C\O[C@@]2(C)Oc3c(C)c(O)c4c(c3C2=O)C(=N[C@H]2CC[C@H](O)O[C@@H]2C)C=C(NC(=O)/C(C)=C\C(=O)[C@@H]2C[C@@H]2[C@@H](O)[C@H](C)[C@@H](O)[C@H](C)[C@H](OC(C)=O)[C@@H]1C)C4=O
11.9 ×10⁻⁶ cm/s	CS(=O)(=O)c1ccccc1-c1csc(N2CCC(C(N)=O)CC2)n1
911 ×10⁻⁶ cm/s	CSc1ccc(/C=C/c2nc3ccccc3n2S(=O)(=O)c2cccc(Cl)c2)cc1
1.15 ×10⁻⁶ cm/s	O=S(=O)(Nc1nccs1)c1ccc(NCc2ccccc2O)cc1
330 ×10⁻⁶ cm/s	COC(=O)CNC(=O)c1nc(-c2ccc([S+](C)(=O)[O-])cc2)c2ccccn12
370 ×10⁻⁶ cm/s	CC(C)(C)c1ccc(-c2csc(N3CCC(C(N)=O)CC3)n2)cc1
18 ×10⁻⁶ cm/s	O=C(NCCCc1ccccc1)C1CCN(c2nc(-c3ccc(Br)cc3)cs2)CC1
874 ×10⁻⁶ cm/s	Cc1cc(Nc2ccc(Br)c(C)c2)n2nc(C)nc2n1
236 ×10⁻⁶ cm/s	c1cc(-c2cc(-c3ccncc3)c3cncn3c2)c2cc[nH]c2c1
647 ×10⁻⁶ cm/s	O=C1CCCC2=C1C(c1[nH]ncc1Cl)N=C(Nc1nc3cc(F)ccc3o1)N2 (configuration not stated)

Papp	Structure (SMILES)
948 ×10⁻⁶ cm/s	Cc1cc(C)c(C(=O)Nc2cccc([S+](=O)([O-])N3CCCC3)c2)[nH]1
707 ×10⁻⁶ cm/s	Cc1cc(C)nc(NC(=S)N2CCN(c3ccc4nsnc4c3)CC2)c1
> 1000 ×10⁻⁶ cm/s	CCOc1ccc(CCNC(=O)c2cc3ccccc3n2Cc2cc(C)cc(C)n2)cc1OCC
> 1000 ×10⁻⁶ cm/s	CCOc1ccc(C(C)CNC(=O)c2cc3sccc3n2Cc2ccccc2)cc1OCC (configuration not stated)
97.5 ×10⁻⁶ cm/s	OCCn1cc(-c2cnc3nnn(Cc4ccc5ncccc5c4)c3n2)cn1
896 ×10⁻⁶ cm/s	COC(=O)c1ccccc1C(=O)Nc1nc(-c2ccccc2)cs1
405 ×10⁻⁶ cm/s	CCc1[nH]c2ccc(CNC(=O)Cc3cnc4c(C)cccn34)cc2c1C
868 ×10⁻⁶ cm/s	COc1cccc(CN(C)c2ccc([S+](=O)([O-])Nc3nccs3)cc2)c1O
< 1 ×10⁻⁶ cm/s	Cc1cn(CCN2CCN(c3ccccc3-c3cc(C#N)cc(C(=O)NCCCN4CCCC4)c3)CC2)c2ccccc12
> 1000 ×10⁻⁶ cm/s	c1ccc(Nc2cc(-c3ccoc3)ncn2)cc1
775 ×10⁻⁶ cm/s	CCN1C(=O)c2ccccc2S(=O)c2ccc(C(=O)NCc3ccccc3)cc21 (configuration not stated)
276 ×10⁻⁶ cm/s	Cc1c(C(=O)OCCOc2ccccc2)[nH]c2c1C(=O)CC(c1ccccc1)C2 (configuration not stated)
587 ×10⁻⁶ cm/s	CCCCC1CCC(C(=O)Nc2ccc(S(=O)(=O)Nc3nccs3)cc2)CC1 (configuration not stated)
14 ×10⁻⁶ cm/s	C#Cc1ccc(NC(=O)c2cnn3c(C)cc(C)nc23)cc1
736 ×10⁻⁶ cm/s	CNC(=O)C1CCN(c2nc(-c3ccc(Br)cc3)cs2)CC1
19.8 ×10⁻⁶ cm/s	COc1cc(Nc2nc(-c3ccncc3)nc3ccccc23)ccc1Cl
< 1 ×10⁻⁶ cm/s	O=C(Nc1nc(-c2ccccc2)cs1)c1ccccc1-n1cnnn1
403 ×10⁻⁶ cm/s	COc1ccc(-n2nc(C3CCN([S+](=O)([O-])c4c(C)noc4C)CC3)[nH]c2=O)cc1
38.5 ×10⁻⁶ cm/s	O=C(Nc1ccc(F)c(C(F)(F)F)c1)Nc1nnc(-c2ccncc2)s1
426 ×10⁻⁶ cm/s	Cc1nn(CCc2nc(-c3ccccc3)cs2)c2[nH]c(=O)cc(C(F)(F)F)c12
969 ×10⁻⁶ cm/s	CC(C)(C)c1ccc(-n2cnc3cc(C(=O)N4CCCCC4)ccc32)cc1
202 ×10⁻⁶ cm/s	O=C(NC1CCCCC1)N1Cc2[nH]cnc2C[C@H]1c1nc(-c2cccc([N+](=O)[O-])c2)no1
< 1 ×10⁻⁶ cm/s	Cc1cnc(-c2ccccc2C2COC2)nc1NCc1ccc(-n2ccnn2)cc1
982 ×10⁻⁶ cm/s	C[C@H]1CN(C(=O)c2nn(C)c3ccccc23)C[C@@H]1c1nc(-c2cccnc2)no1
10.8 ×10⁻⁶ cm/s	O=S(=O)(Nc1nccs1)c1ccc(NCc2cc(Cl)ccc2O)cc1

Papp	Structure (SMILES)
< 1 ×10⁻⁶ cm/s	Cc1ccc(NC2=C(c3ccc(C(F)(F)F)cc3)C(=O)c3ccccc32)cc1F
577 ×10⁻⁶ cm/s	Cc1ccc(NC(=O)N2CCN(c3nc(N)nc4sc(-c5cccnc5)nc34)CC2)cc1
< 1 ×10⁻⁶ cm/s	Cc1ccc(-c2c(CN3CCN(c4cccc(C(F)(F)F)c4)CC3)csc2C)cc1
737 ×10⁻⁶ cm/s	Cc1cc(C)c(C(=O)Nc2cccc([S+](=O)([O-])Nc3ccc(Br)cc3)c2)[nH]1
297 ×10⁻⁶ cm/s	Cc1ccc(S(=O)(=O)Nc2cnccc2C(=O)Nc2nc(-c3ccco3)cs2)cc1
407 ×10⁻⁶ cm/s	O=C(Nc1ccc(Oc2ccnc3[nH]ccc23)c(F)c1)c1cccn(-c2ccc(F)cc2)c1=O
726 ×10⁻⁶ cm/s	Cc1ccnc(NC(=S)N2CCN(c3ccccc3C(F)(F)F)CC2)c1
339 ×10⁻⁶ cm/s	Cc1noc(C)c1S(=O)(=O)Nc1cnccc1C(=O)Nc1nc(-c2ccccc2)cs1
478 ×10⁻⁶ cm/s	CC(C)c1ccccc1-c1nc2c(c(NCc3ccc(-c4cccnc4)cc3)n1)CNC2
30.1 ×10⁻⁶ cm/s	Cc1ccc(S(=O)(=O)Nc2ccccc2C(=O)Nc2nc(-c3ccccc3)c(C)s2)cc1
> 1000 ×10⁻⁶ cm/s	CS(=O)(=O)c1ccc(-c2nnc(/C=C/c3nnc(-c4ccc(C#N)cc4)o3)n2-c2ccccc2Cl)nc1
< 1 ×10⁻⁶ cm/s	COc1cc(/C=C(\C#N)C(=O)c2ccc(O)c(O)c2)cc(I)c1O
125 ×10⁻⁶ cm/s	Cc1ccc(S(=O)(=O)Nc2ccccc2C(=O)Nc2ncc(-c3ccccc3)s2)cc1
> 1000 ×10⁻⁶ cm/s	CCOc1ccc(CCNC(=O)c2cc3sccc3n2CCN(C)C)cc1OCC
3.6 ×10⁻⁶ cm/s	COc1cnccc1-c1nc(Nc2ccc(F)c(F)c2)c2ccccc2n1
436 ×10⁻⁶ cm/s	COc1ccc(-n2nc(C3CCCN(C(=O)c4cccc(OC)c4)C3)[nH]c2=O)cc1 (configuration not stated)
257 ×10⁻⁶ cm/s	O=C(NCc1ccco1)c1nc2nc(-c3cccs3)cc(C(F)(F)F)n2n1
17 ×10⁻⁶ cm/s	FC(F)(F)c1cccc(Sc2nc(-c3ccccc3)nnc2C(F)(F)F)c1
145 ×10⁻⁶ cm/s	COc1cc(NC(=O)c2nc3ccccc3n(C)c2=O)cc(OC)c1OC
> 1000 ×10⁻⁶ cm/s	COc1cccc(-c2csc(NC(=O)c3ccncc3NS(=O)(=O)c3ccc(C)cc3)n2)c1
825 ×10⁻⁶ cm/s	Cc1ccc(-c2nn(C(C)(C)C)c3ncnc(N)c23)cc1
117 ×10⁻⁶ cm/s	O=C(Nc1ccccc1O)c1ccc(NC(=O)C2CC2)cc1
6.74 ×10⁻⁶ cm/s	CCN(c1cc(C#CCN2CCOCC2)cc(C(=O)NCc2c(C)cc(C)[nH]c2=O)c1C)C1CCC(N(C)CCOC)CC1 (configuration not stated)

Structure (SMILES)	Papp
CCOC(=O)c1ccc(NC(=O)c2sc3nc4c(cc3c2N)N2CCC4CC2)cc1	928 ×10⁻⁶ cm/s
COc1cc2c3cc1Oc1c(O)c(OC)cc4c1[C@@H](Cc1ccc(cc1)Oc1cc(ccc1O)C[C@H]3N(C)CC2)N(C)CC4	327 ×10⁻⁶ cm/s
O=C(O)CNC(=O)c1c(O)c2ccccc2n(Cc2ccccc2)c1=O	14.6 ×10⁻⁶ cm/s
C[C@H]1CCC[C@H](O)CCC/C=C/c2cc(O)cc(O)c2C(=O)O1	864 ×10⁻⁶ cm/s
